Series [1] relates to HIV. Particulars: literature report; cited from earlier work.
Series [2] deals with HCV type 1b replicon. The series can be described thus: HCV replicon assay (Huh-Luc, luciferase readout). The class given is cell-based. Particulars: Hepatitis C virus, 72 h; Huh-Luc replicon cells, three days incubation, luciferase activity. The protocol:
(§1) The in vitro antiviral activity against HCV of the compound of formula I was tested in a cellular HCV replicon system based on Lohmann et al. (1999) Science 285:110-113, with the further modifications described by Krieger et al. (2001) Journal of Virology 75: 4614-4624 (incorporated herein by reference), which is further exemplified in the examples section. This model, while not a complete infection model for HCV, is widely accepted as the most robust and efficient model of autonomous HCV RNA replication currently available. It will be appreciated that it is important to distinguish between compounds that specifically interfere with HCV functions from those that exert cytotoxic or cytostatic effects in the HCV replicon model, and as a consequence cause a decrease in HCV RNA or linked reporter enzyme concentration. […]
The replicon cells were plated in 384-well plates in the presence of the test and control compounds which were added in various concentrations. Following an incubation of three days, HCV replication was measured by assaying luciferase activity (using standard luciferase assay substrates and reagents and a Perkin Elmer ViewLux™ ultraHTS microplate imager). […] The inhibitory activity of the compound on luciferase activity was monitored on the Huh-Luc cells, enabling a dose-response curve for the test compound. […]

Series [3] in a line: Cytotoxicity in Huh-7 cells. The class given is cell-based. Particulars: human. The protocol: as §1, with “concentration. Assays are known in the field for the evaluation of cellular cytotoxicity based for example on the activity of mitochondrial enzymes using fluorogenic redox dyes such as resazurin. Furthermore, cellular counter screens exist for the evaluation of non-selective inhibition of linked reporter gene activity, such as firefly luciferase.” for “concentration.”

Consider three molecules from US9012428B2, “Uracyl spirooxetane nucleoside phosphoramidates” (Janssen Products, LP, priority 2010, dated 2015).

Each structure is given as a SMILES string.

With `Cc1cn([C@@H]2O[C@H](CO)[C@@H](O)[C@]23CCO3)c(=O)[nH]c1=O` [1-(2-O,2-C-ethano-β-D-ribofuranosyl)thymine], the “activity against HIV” value in series [1] is recorded as “no activity was found”.
Turning to `O=c1ccn([C@@H]2O[C@H](CO)[C@@H](O)[C@]23CCO3)c(=O)[nH]1` [1-(2-O,2-C-ethano-β-D-ribofuranosyl)uracil], the “activity against HIV” value in series [1] is listed as “no activity was found”.
`CCCCOC(=O)[C@H](C)N[P@](=O)(OC[C@H]1O[C@@H](n2ccc(=O)[nH]c2=O)[C@@]2(CCO2)[C@@H]1O)Oc1ccccc1` [Compound P1, butyl N—[(S)-{[(4R,5R,7R,8R)-5-(2,4-dioxo-3,4-dihydro-pyrimidin-1(2H)-yl)-8-hydroxy-1,6-dioxaspiro[3.4]oct-7-yl]methoxy}(phenoxy)-phosphoryl]-L-alaninate]: the EC50 (usually the concentration needed to bring the measured effect to its halfway point) in series [2] is 2.51 µM. In addition, the CC50 (commonly the concentration giving 50% cytotoxicity) in series [3] was greater than 98 µM.
